The assay deals with T1, recombinant human aromatase (CYP19) (Homo sapiens, UniProt P11511).
T1 construct: purchased GENTEST 456260; host or cells: baculovirus/insect cells
T1 sequence (P11511 1-503): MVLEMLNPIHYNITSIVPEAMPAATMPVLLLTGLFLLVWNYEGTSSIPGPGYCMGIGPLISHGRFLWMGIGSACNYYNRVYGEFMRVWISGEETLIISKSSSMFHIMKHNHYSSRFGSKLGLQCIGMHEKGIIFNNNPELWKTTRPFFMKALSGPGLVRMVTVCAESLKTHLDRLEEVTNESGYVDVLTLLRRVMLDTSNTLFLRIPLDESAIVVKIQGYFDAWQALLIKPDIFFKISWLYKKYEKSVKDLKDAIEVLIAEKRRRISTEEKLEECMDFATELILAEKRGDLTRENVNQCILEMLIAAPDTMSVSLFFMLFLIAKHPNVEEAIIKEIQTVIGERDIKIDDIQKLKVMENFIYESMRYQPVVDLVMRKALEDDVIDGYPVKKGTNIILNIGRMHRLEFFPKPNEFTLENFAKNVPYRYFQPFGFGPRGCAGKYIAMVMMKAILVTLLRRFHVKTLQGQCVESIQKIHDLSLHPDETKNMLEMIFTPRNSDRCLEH
The assay is described as follows: aromatase (CYP19) inhibition assay, fluorometric substrate dibenzylfluorescein (DBF). The format is biochemical. The settings on record: recombinant human aromatase (baculovirus/insect cell expressed), test compounds 2×10^−5 to 10^−9 M, 37° C. for 30 minutes. On the procedure: Compounds of the invention were evaluated for inhibiting aromatase enzyme using the following aromatase (CYP19) inhibition assay which detects aromatase inhibitors utilizing recombinant human aromatase (baculovirus/insect cell expressed) and the fluorometric substrate dibenzylfluorescein (DBF). Aromatase will metabolize DBF to fluorescein which will give the fluorescent signal. The assay is conducted in 96-well black, Falcon plate (BD Biosciences, Cat. No. 353241) in the total volume of 100 μL per well. 40 μL of the Cofactor/Dilution buffer (1) is added to the plate followed by 10 μL of serially diluted test compounds in duplicates for final concentration of 2×10^−5 to 10^−9 M, or 10 μL of phosphate buffer for positive and background control wells. After 10 minutes of preincubation at 37° C., the reaction is initiated by adding 50 μL of prewarmed Enzyme/Substrate Mix (2) to the test compound wells, and positive control wells (maximum activity of CYP19, which represents 100%). The plate is incubated at 37° C. for 30 minutes. To stop the reaction, 37.5 μL of 2 N NaOH is added to all wells. For background controls, 50 μL of Enzyme/Substrate Mix (2) are added into background control wells. The plate is left at 37° C. incubator for 2 hours to develop adequate signal to background ratio. Fluorescence per well is measured in the fluorescent plate reader. The metabolite concentration is measured using excitation wavelength of 485 nm and emission wavelength of 538 nm. Inhibition of aromatase by test compounds is expressed in percentage relative to positive controls. IC50 values for the test compounds are derived from non-liner curve fitting. • (1) Cofactor/Dilution buffer: 50 mM phosphate buffer, pH=7.4; 1× NADPH regenerating system A (20× stock, GENTEST, Cat. No. 451220); 1× NAPDH regenerating system B (100× stock, GENTEST, Cat. No. 451200) and 0.2 mg/mL control protein (Insect Cell Control Supersomes, GENTEST, Cat. No. 456200) • (2) Enzyme/Substrate Mix: 50 mM phosphate buffer, pH=7.4, 0.02 nmole/mL human aromatase protein (Human CYP19+P450 Reductase Supersomes, GENTEST, Cat. No. 456260); 0.4 μM dibenzylfluorescein (DBF, GENTEST, Cat. No. 451750, prepared at 2 mM concentration in acetonitrile); 0.5 mg/mL control protein (Insect Cell Control Supersomes, GENTEST, Cat. No. 456200).

For the compound `COc1ccc(F)cc1C(C)(C)CC(O)(Cc1cc2ncncc2[nH]1)C(F)(F)F` (stereo not shown) [1,1,1-Trifluoro-4-(5-fluoro-2-methoxyphenyl)-4-methyl-2-(5H-pyrrolo[3,2-d]pyrimidin-6-ylmethyl)pentan-2-ol], the aromatase inhibition entry is listed as “showed aromatase inhibition”.

Take `COc1ccc(F)cc1C(C)(C)CC(O)(Cc1cc2ccncc2s1)C(F)(F)F` (stereo not shown) [1,1,1-Trifluoro-4-(5-fluoro-2-methoxyphenyl)-4-methyl-2-thieno[2,3-c]pyridin-2-ylmethylpentan-2-ol]: the aromatase inhibition result is “showed aromatase inhibition”.

As to `COc1ccc(F)cc1C(C)(C)CC(O)(Cc1cc2cnccc2[nH]1)C(C)(C)C` (stereo not shown) [5-(5-Fluoro-2-methoxyphenyl)-2,2,5-trimethyl-3-(1H-pyrrolo[3,2-c]pyridin-2-ylmethyl)hexan-3-ol], the aromatase inhibition result was “showed aromatase inhibition”.

On to `CC(C)(CC(O)(Cc1cc2ccncc2[nH]1)C(F)(F)F)c1cccc2c1OCC2` (stereo not shown) [4-(2,3-Dihydrobenzofuran-7-yl)-1,1,1-trifluoro-4-methyl-2-(1H-pyrrolo[2,3-c]pyridin-2-ylmethyl)pentan-2-ol], for which the aromatase inhibition result was “showed aromatase inhibition”.

For `COc1ccc(F)cc1C(C)(C)CC(O)(Cc1cc2cnccc2[nH]1)C(C)C` (stereo not shown) [5-(5-Fluoro-2-methoxyphenyl)-2,5-dimethyl-3-(1H-pyrrolo[3,2-c]pyridin-2-ylmethyl)hexan-3-ol], the aromatase inhibition result is “showed aromatase inhibition”.

On to `CC(C)(CC(O)(Cc1cc2ccncc2[nH]1)C(F)(F)F)c1cccc(F)c1` (stereo not shown) [1,1,1-Trifluoro-4-(3-fluorophenyl)-4-methyl-2-(1H-pyrrolo[2,3-c]pyridin-2-ylmethyl)pentan-2-ol], for which the aromatase inhibition entry is recorded as “showed aromatase inhibition”.

Take `Cc1ccc(F)cc1C(C)(C)CC(O)(Cc1cc2ccncc2[nH]1)C(C)C` (stereo not shown) [5-(5-Fluoro-2-methylphenyl)-2,5-dimethyl-3-(1H-pyrrolo[2,3-c]pyridin-2-ylmethyl)hexan-3-ol]: the aromatase inhibition entry is on record as “showed aromatase inhibition”.

In the case of `CC(C)(CC(O)(Cc1cc2cnccc2[nH]1)C1CC1)c1cc(Cl)cc2c1OCC2` (stereo not shown) [4-(5-Chloro-2,3-dihydrobenzofuran-7-yl)-2-cyclopropyl-4-methyl-1-(1H-pyrrolo[3,2-c]pyridin-2-yl)pentan-2-ol], the aromatase inhibition entry is “showed aromatase inhibition”.

As for `COc1ccc(F)cc1C(C)(C)CC(O)(Cc1[nH]c2ccncc2c1CN(C)C)C(F)(F)F` (stereo not shown) [2-(3-Dimethylaminomethyl-1H-pyrrolo[3,2-c]pyridin-2-ylmethyl)-1,1,1-trifluoro-4-(5-fluoro-2-methoxyphenyl)-4-methylpentan-2-ol], the aromatase inhibition entry was “showed aromatase inhibition”.

Take `Cc1ccc(F)cc1C(C)(C)CC(O)(Cc1cc2cnccc2[nH]1)C1CC1` (stereo not shown) [2-Cyclopropyl-4-(5-fluoro-2-methylphenyl)-4-methyl-1-(1H-pyrrolo[3,2-c]pyridin-2-yl)pentan-2-ol]: the aromatase inhibition result is on record as “showed aromatase inhibition”.

Consider `Cc1ccc(F)cc1C(C)(C)CC(O)(Cc1cc2ncncc2[nH]1)C(F)(F)F` (stereo not shown) [1,1,1-Trifluoro-4-(5-fluoro-2-methylphenyl)-4-methyl-2-(5H-pyrrolo[3,2-d]pyrimidin-6-ylmethyl)pentan-2-ol], for which the aromatase inhibition result is “showed aromatase inhibition”.

`CC(C)(CC(O)(Cc1cc2ccncc2[nH]1)C1CC1)c1cc(Cl)cc2c1OCC2` (stereo not shown) [4-(5-Chloro-2,3-dihydrobenzofuran-7-yl)-2-cyclopropyl-4-methyl-1-(1H-pyrrolo[2,3-c]pyridin-2-yl)pentan-2-ol]: the aromatase inhibition entry is “showed aromatase inhibition”.

Take `CC(C)(CC(O)(Cc1cc2cnccc2[nH]1)C(F)(F)F)c1ccccc1` (stereo not shown) [1,1,1-Trifluoro-4-methyl-4-phenyl-2-(1H-pyrrolo [3,2-c]pyridin-2-ylmethyl)pentan-2-ol]: the aromatase inhibition entry is listed as “showed aromatase inhibition”.

The values above are taken from patent US20060030608A1, “Anti aromatase compounds pharmaceutical compositions and uses thereof” (Boehringer Ingelheim Pharmaceuticals, Inc., priority 2004, published 2006).
